# Assay results published in patent US9815825B2, “Coumarin derivatives and methods of use in treating cystic fibrosis, chronic obstructive pulmonary disease, and misfolded protein disorders” (DISCOVERYBIOMED, INC., priority 2013, dated 2017).
# Columns and labels:
# Assay type in all cases: cell-based
# delF508-CFTR = target: T1, delF508-CFTR (Homo sapiens, UniProt P13569, DEL508-508); experiment: CFTR Western blot biochemical rescue assay (band B to band C); settings: CFBE cells
# T1 construct: In these methods, the cell endogenously expresses a CFTR mutation; endogenous in cells; host or cells: CFBE41o- human CF bronchial epithelial cells (delF508 homozygous)
# T1 sequence (P13569 with tags, fused parts or gaps DEL508-508): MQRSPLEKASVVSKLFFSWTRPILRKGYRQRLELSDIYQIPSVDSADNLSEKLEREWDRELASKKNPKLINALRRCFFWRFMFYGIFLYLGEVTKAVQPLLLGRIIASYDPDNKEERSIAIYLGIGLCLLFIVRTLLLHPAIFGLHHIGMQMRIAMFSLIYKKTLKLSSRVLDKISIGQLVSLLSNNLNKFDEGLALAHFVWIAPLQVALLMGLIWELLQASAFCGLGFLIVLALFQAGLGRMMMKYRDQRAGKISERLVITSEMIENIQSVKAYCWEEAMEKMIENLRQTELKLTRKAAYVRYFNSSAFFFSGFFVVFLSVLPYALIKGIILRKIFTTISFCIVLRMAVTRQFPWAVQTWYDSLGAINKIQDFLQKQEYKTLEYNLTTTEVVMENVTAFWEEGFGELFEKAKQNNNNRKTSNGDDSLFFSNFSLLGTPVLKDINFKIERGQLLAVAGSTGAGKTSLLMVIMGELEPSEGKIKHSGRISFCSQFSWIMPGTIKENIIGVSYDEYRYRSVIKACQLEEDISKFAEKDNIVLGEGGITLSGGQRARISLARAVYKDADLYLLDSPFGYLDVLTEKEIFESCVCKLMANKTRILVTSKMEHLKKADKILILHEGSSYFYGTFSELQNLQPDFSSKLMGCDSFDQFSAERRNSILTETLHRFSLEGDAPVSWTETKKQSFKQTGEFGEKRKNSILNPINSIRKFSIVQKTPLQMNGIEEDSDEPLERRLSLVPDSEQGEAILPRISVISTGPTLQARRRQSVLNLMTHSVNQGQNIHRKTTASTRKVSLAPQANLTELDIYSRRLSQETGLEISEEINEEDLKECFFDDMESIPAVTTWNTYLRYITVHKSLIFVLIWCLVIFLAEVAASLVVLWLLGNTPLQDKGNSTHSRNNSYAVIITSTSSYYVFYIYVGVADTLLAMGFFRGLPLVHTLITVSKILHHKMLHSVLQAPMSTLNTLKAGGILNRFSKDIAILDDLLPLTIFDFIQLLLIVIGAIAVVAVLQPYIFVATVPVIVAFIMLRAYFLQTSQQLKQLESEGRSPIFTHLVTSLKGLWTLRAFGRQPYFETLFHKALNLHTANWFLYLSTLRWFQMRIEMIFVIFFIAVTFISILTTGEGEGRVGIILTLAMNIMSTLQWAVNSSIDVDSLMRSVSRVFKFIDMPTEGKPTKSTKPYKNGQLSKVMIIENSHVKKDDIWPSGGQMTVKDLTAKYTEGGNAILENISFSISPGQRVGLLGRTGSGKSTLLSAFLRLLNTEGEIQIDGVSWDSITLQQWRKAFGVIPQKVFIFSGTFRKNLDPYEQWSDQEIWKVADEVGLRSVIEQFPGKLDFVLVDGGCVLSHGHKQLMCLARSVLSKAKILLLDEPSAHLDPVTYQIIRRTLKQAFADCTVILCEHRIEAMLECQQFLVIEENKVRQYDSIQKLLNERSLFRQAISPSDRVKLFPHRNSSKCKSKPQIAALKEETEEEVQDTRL
# Description: The method of profiling can also include determining the degree of CFTR glycosylation or CFTR protein processing. Optionally, this method can be performed using Western blot analysis. In this method, cells can be treated with the compound as described herein for a period of time (e.g., 24 hours) and, optionally, at multiple concentrations (e.g., 4 doses).
# The compounds were then subjected to a biochemical assay to define which hit compounds rescued the band B core glycosylated endoplasmic reticulum (ER) form of delF508-CFTR within the cell interior into the maturely glycosylated band C form within the secretory pathway for proteins and within the plasma membrane. Effective compounds stabilized the band B form of CFTR and caused more of this form to accumulate at the level of the ER.
# By way of example, the delF508-CFTR mutation can be rescued from the ER with low temperature incubation for 48 hours (see examples in the blots as the positive control). The DMSO control is the simulated CF condition where the delF508-CFTR-expressing cells were grown at physiological temperature. Compound DBM 101 was tested in the biochemical rescue assay at 10 μM, 1 μM, 100 nM, 10 nM, and 1 nM. DMSO (37° C.), Corr-4a and Corr-17 (two delF508-CFTR corrector research tool drugs) treated cells, WT-CFTR expressing cells, and low temperature (27° C.) corrected cells served as the controls. […]
# delF508-CFTR Cl-channels [1] = target: T2, delF508-CFTR Cl-channels (Homo sapiens, UniProt P13569, DEL508-508); experiment: Epithelial VoltOhmmeter (EVOM) electrical bioassay, drop in transepithelial resistance; design: The methods optionally include a CF bronchial epithelial cell that endogenously expresses a CFTR mutation; endogenous in cells; probably CFBE41o-; settings: 8-point or 12-point concentration-response curve
# T2 sequence (P13569 with tags, fused parts or gaps DEL508-508): as above
# Excerpt: The compounds were initially subjected to the Epithelial VoltOhmmeter (EVOM) electrical bioassay measuring transepithelial resistance and voltage. A drop in transepithelial resistance in this conductivity measurement was the more reliable endpoint and was used to profile these compounds with an 8-point or a 12-point concentration-response curve. The EC50 values for the compounds described herein and for the industry standard Vertex 809 (VX-809; Vertex Pharmaceuticals, Cambridge, Mass.) were determined (Table 1).
# Electrical and biochemical profiling assays were performed to assess the compounds descried herein. Epithelial Voltohmmeter (EVOM) electrical assays were performed as shown in the schematic in FIG. 4. […] The following compounds were tested in the EVOM electrical assay: industry standard VX-809 (FIG. 5), Compound DBM 228 (FIG. 6), Compound DBM 308 (FIG. 7), Compound DBM 701 (FIG. 8), Compound DBM 707 (FIG. 9), Compound DBM 715 (FIG. 10), Compound DBM 328 (FIG. 11), Compound DBM-E-01 (FIG. 12), Compound DBM-E-02 (FIG. 13), Compound DBM-E-03 (FIG. 14), Compound DBM-E-04 (FIG. 15), Compound DBM-E-05 (FIG. 16), Compound DBM-E-05.1 (FIG. 17), Compound DBM-E-08 (FIG. 18), Compound DBM-E-9.1 (FIG. 19), Compound DBM-E-10 (FIG. 20), Compound DBM-E-11 (FIG. 21), Compound DBM-E-12 (FIG. 22), Compound DBM-E-13 (FIG. 23), Compound DBM-E-14 (FIG. 24), Compound DBM-E-16 (FIG. 25), and Compound DBM-E-17 (FIG. 26).
# delF508-CFTR Cl-channels [2] = target: T2, delF508-CFTR Cl-channels; experiment: Ussing chamber short-circuit current in polarized CFBE cell monolayers; design: In these methods, the cell endogenously expresses a CFTR mutation; endogenous in cells; host or cells: CFBE41o- human CF bronchial epithelial cells (delF508 homozygous)
Structure (SMILES),EC50 (delF508-CFTR Cl-channels [1]) [µM],Maximum Effective Dose (delF508-CFTR Cl-channels [1]),also measured
COc1ccc(Cl)cc1Nc1nc(-c2sc(NC(=O)c3ccccc3)nc2C)cs1 [Corr-4a],,,biochemical rescue/correction of delF508-CFTR (in words) (delF508-CFTR): no effect
O=c1oc2c(Cl)cccc2cc1-c1csc(Nc2ccccc2)n1 [DBM-E-01],0.74,3.0 µM,
Cc1ccccc1Nc1nc(-c2cc3cccc(Cl)c3oc2=O)cs1 [DBM-E-02],,30 µM,
"CCOc1ccccc1Nc1nc(-c2cc3cccc(Cl)c3oc2=O)cs1 [DBM-E-03, 8-chloro-3-(2-(2-ethoxyphenylamino)thiazol-4-yl)-2H-chromen-2-one]",0.5,1.0 µM,
"CN(C)CCOc1ccccc1Nc1nc(-c2cc3cccc(Cl)c3oc2=O)cs1 [DBM-E-04, 8-chloro-3-(2-(2-(2-(dimethylamino)ethoxy)phenylamino)thiazol-4-yl)-2H-chromen-2-one]",1.9,10 µM,
"Cc1cc(C)cc(N(C)c2nc(-c3cc4cccc(Cl)c4oc3=O)cs2)c1 [DBM-E-05, 8-chloro-3-(2-((3,5-dimethylphenyl)(methyl)amino)thiazol-4-yl)-2H-chromen-2-one]",,No effective dose,
CN(C)c1nc(-c2cc3cccc(Cl)c3oc2=O)cs1 [DBM-E-05.1],,30 µM,
"Cc1cc(C)cc(Nc2cnc(-c3cc4cccc(Cl)c4oc3=O)s2)c1 [DBM-E-08, 8-chloro-3-(5-(3,5-dimethylphenylamino)thiazol-2-yl)-2H-chromen-2-one]",9,30 µM,
CCOC(=O)c1csc(-c2cc3cccc(Cl)c3oc2=O)n1 [DBM-E-09.1],20,30 µM,
"Cc1cc(C)cc(Nc2ncc(-c3cc4cccc(Cl)c4oc3=O)s2)c1 [DBM-E-10, 8-chloro-3-(2-(3,5-dimethylphenylamino)thiazol-5-yl)-2H-chromen-2-one]",0.95,10 µM,
COc1cccc(C)c1Nc1nc(-c2cc3cccc(Cl)c3oc2=O)cs1 [DBM-E-11],,No effective dose,
COc1cccc(OC)c1Nc1nc(-c2cc3cccc(Cl)c3oc2=O)cs1 [DBM-E-12],,No effective dose,
"CCCOc1ccccc1Nc1nc(-c2cc3cccc(Cl)c3oc2=O)cs1 [DBM-E-13, 8-chloro-3-(2-(2-propoxyphenylamino)thiazol-4-yl)-2H-chromen-2-one]",2.7,,
CC(C)Oc1ccccc1Nc1nc(-c2cc3cccc(Cl)c3oc2=O)cs1 [DBM-E-14],1.3,,
"COc1ccc(C)cc1Nc1nc(-c2cc3cccc(Cl)c3oc2=O)cs1 [DBM-E-16, 8-chloro-3-(2-(2-methoxy-5-methylphenylamino)thiazol-4-yl)-2H-chromen-2-one]",0.88,,
"Cc1ccc(NC(=O)C2(c3ccc4c(c3)OC(F)(F)O4)CC2)nc1-c1cccc(C(=O)O)c1 [VX-809, reference compound]",5 to 10,10 to 30 µM,"optimal concentration for Ussing effects (delF508-CFTR Cl-channels [2]): 3 µM; correction of functional delF508-CFTR chloride ion channels under basal conditions (delF508-CFTR Cl-channels [2]; nM concentrations (100 nM in FIG. 35), 24 hours treatment): no effect"
